Laboratory results reported in publication PMC8839210, “Identification of Inhibitory Activities of Dietary Flavonoids against URAT1, a Renal Urate Re-Absorber: In Vitro Screening and Fractional Approach Focused on Rooibos Leaves” (Nutrients, 2022).

What was measured:
[1] = biological target: T1, URAT1 (Homo sapiens, UniProt Q96S37); experiment: Urate transport assay using URAT1-expressing 293A cells; type: cell-based; settings: for remaining activity at 100 µM: 293A, authentic chemical 100 μM, mean ± S.D., n = 3, read-out: URAT1-mediated urate transport activity, % of the control; for remaining activity at 100 µM / IC50: 20 s; for IC50: [14C]-urate 5 μM, 37 °C, URAT1-expressing 293A cells, read-out: IC50 against URAT1-mediated urate transport
T1 construct: The complete human URAT1 cDNA in pEGFP-C1; expressed in transfected cells; host or cells: 293A cells (human embryonic kidney 293-derived), transient transfection with PEI-MAX
T1 sequence (Q96S37 1-553): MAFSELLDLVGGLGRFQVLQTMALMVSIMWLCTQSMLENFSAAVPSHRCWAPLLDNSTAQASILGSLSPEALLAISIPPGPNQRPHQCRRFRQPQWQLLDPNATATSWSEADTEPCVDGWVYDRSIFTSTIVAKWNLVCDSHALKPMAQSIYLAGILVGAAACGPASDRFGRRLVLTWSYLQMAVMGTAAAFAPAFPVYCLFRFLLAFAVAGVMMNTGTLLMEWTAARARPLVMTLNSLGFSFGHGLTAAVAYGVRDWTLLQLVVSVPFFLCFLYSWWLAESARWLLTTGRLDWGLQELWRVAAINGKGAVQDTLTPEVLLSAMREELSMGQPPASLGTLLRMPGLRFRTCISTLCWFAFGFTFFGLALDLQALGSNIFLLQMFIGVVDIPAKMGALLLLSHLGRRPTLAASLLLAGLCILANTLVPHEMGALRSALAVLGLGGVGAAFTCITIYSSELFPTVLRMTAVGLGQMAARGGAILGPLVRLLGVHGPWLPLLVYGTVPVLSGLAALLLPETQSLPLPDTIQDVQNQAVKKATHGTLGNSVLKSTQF
Method: After 24 h, each vector was transiently transfected into the cells (1 μg of plasmid/5 μL of PEI-MAX/well). At 24 h after transfection, the culture medium was replaced with fresh one.
Briefly, 48 h after plasmid transfection, cells were washed twice with Buffer T2 and then pre-incubated in Buffer T2 for 15 min at 37 °C. Then, the buffer was exchanged with pre-warmed fresh Buffer T2 containing radiolabeled urate ([8-^14C]-uric acid; final concentration, 5 μM) with or without the test compound at the indicated concentrations (0, 0.3, 1, 3, 10, 30, 100, 300, or 500 μM); the cells were further incubated for 20 s at 37 °C; as vehicle control, 1% DMSO was used in this study. Subsequently, the cells were washed five times with ice-cold Buffer T2; then, the cells were lysed with 0.2 M NaOH solution (500 μL/well) on ice. The resulting lysates were neutralized with 1 M HCl solution (100 μL/well). […] Using a Pierce BCA Protein Assay Kit (Thermo Fisher Scientific, Kanagawa, Japan), protein concentration was determined. Urate transport activity was calculated as the incorporated clearance (μL/mg protein/min): (incorporated level of urate [DPM/mg protein/min]/urate level in the incubation mixture [DPM/μL]). URAT1-dependent urate transport activity was calculated by subtracting the urate transport activity of mock (control) cells from that of URAT1-expressing cells.
Urate uptake was examined in the presence of several concentrations of each test compound to determine their IC50 values. Then, URAT1-mediated transport activities were expressed as a percentage of the control (100%).

[2] = set-up: method as in PMID 26785820; settings: healthy males, four weeks, cited from earlier work
[3] = tested on: xanthine oxidoreductase (XOD); settings: cited from earlier work
[4] = biological target: T1, URAT1; settings: cited from earlier work

Compound	remaining activity at 100 µM [1]	IC50 [1]	further results
O=c1c(O)c(-c2ccc(O)c(O)c2)oc2cc(O)ccc12 [Fisetin]	< 50%	7.5 µM	
O=c1c(-c2ccc(O)cc2)coc2cc(O)cc(O)c12 [Genistein]	< 50%	101 µM	
O=c1c(O)c(-c2ccc(O)c(O)c2)oc2c(O)c(O)cc(O)c12 [Gossypetin]	< 50%	31.3 µM	
O=c1cc(-c2ccc(O)c(O)c2)oc2cc(O)cc(O)c12 [Luteolin]	< 50%	25.7 µM	
O=c1c(O)c(-c2cc(O)c(O)c(O)c2)oc2cc(O)cc(O)c12 [Myricetin]	< 50%	18.1 µM	
O=c1c(O)c(-c2ccc(O)c(O)c2)oc2cc(O)c(O)c(O)c12 [Quercetagetin]	< 50%	18.4 µM	
O=c1c(O)c(-c2ccc(O)c(O)c2)oc2cc(O)cc(O)c12 [Quercetin]		12.6 µM	Effect on URAT1-mediated urate transport (in words) ([1]; 300 μM, experimentally maximum concentration): inhibited URAT1; Plasma uric acid concentration, mean difference ([2]; 500 mg quercetin daily as single tablet, mean plasma uric acid 5.5 mg/dL): -0.45 mg/dL; Urinary uric acid output over 24 h (24 h-UUA), before vs after treatment ([2]; 500 mg quercetin daily): no significant difference; XOD inhibition (in words) [3]: inhibitory activity
O=C(CCc1ccc(O)c(O)c1)c1c(O)cc(O)c([C@@H]2O[C@H](CO)[C@@H](O)[C@H](O)[C@H]2O)c1O [aspalathin, reference compound]			XOD inhibition (in words) [3]: inhibits XOD
O=c1c(O)c(-c2ccc(O)cc2O)oc2cc(O)cc(O)c12 [morin, Morin]	< 50%		URAT1 inhibition (in words) ([4]; previous report): URAT1 inhibitor
O=C(/C=C/c1ccc(O)cc1)c1c(O)cc(O)cc1O [naringenin chalcone, Naringenin chalcone]	< 50%		
O=C1C[C@@H](c2ccc(O)cc2)Oc2cc(O)cc(O)c21 [naringenin, reference compound]			URAT1-mediated urate transport activity, % of the control ([4]; 100 μM, previous study of the authors): 17.9 ± 7.7%
